Results on 25 substances are retold here after publication PMC5458078, “Global mapping of CARM1 substrates defines enzyme specificity and substrate recognition” (Nature Communications, 2017).

The first assay concerns MCF7 CARM1 KO cells. The assay is described as follows: Quantitative MS of ADMA-containing peptides in MCF7 CARM1 KO cells expressing CARM1 28-608 or CARM1 140-608, and in CARM1 KO.
Settings: not given
The format is cell-based, human.
Regarding SPFLGSArPrLR, the “CARM1 140-608/WT” value is recorded as -0.6148 and the KO/WT is listed as -3.721.

Staying with this assay, now noted: CARM1 140-608 versus WT, difference of mean log2 values.
Take SSYLESPrGPrFDGPR: the “CARM1 140-608/WT” value is -2.628.
In the case of TDGFAEAIHSPQVAGVPrFR, the “CARM1 140-608/WT” value was -1.17.
In the case of TPGQINLAQLrLQHMQQQVYAQK, the “CARM1 140-608/WT” value is recorded as -3.552.
On the same count and under the same terms, the same measure for TPLLGDGPrAPFNQEGQSTGPPPLIPGLGQQGAQGR: -4.072.
On to VIGTAVArYNFAAR, for which the “CARM1 140-608/WT” value is listed as -1.8723.

The assay is the same for the next values; noted with them: CARM1 140-608 versus WT, mean of three replicates (log2).
With SQGAQPQQVTLrLALR, the “CARM1 140-608/WT” value is given as -1.727.
For the substance TPGQPGPQrFDGPPGQQVQPrFDGVPQrFDGPQHQQASR, the “CARM1 140-608/WT” value is -1.05.
Take VGVPTAVQNLAPrAAVAAAAPrAVAPYK: the “CARM1 140-608/WT” value is reported as 0.2214.

Staying with this assay, now noted: CARM1 140-608 vs WT, mean of 3 replicates (log2 scale).
SLIPPIPVSPPILAPrLSSGALK: the “CARM1 140-608/WT” value is reported as -0.7213.
Turning to SPGVFRPEQDPVPrMPFEK, the “CARM1 140-608/WT” value was -0.5664.
For SVVESSAPGANNLQVNALVArLPLLLPR, the “CARM1 140-608/WT” value is reported as -0.343.
Take SVVESSAPGANNLQVNALVArLPLLLPrAPR: the “CARM1 140-608/WT” value is reported as -1.353.
With TPASTWASPrPLLNWSR, the “CARM1 140-608/WT” value is -2.026.
On the same count and under the same terms, under VFrYSTSLEK stands 0.01169; under VGVPPQNPrPSLNSAPSPFNPQGQSQITDPR, -2.085.

The assay is the same for the next values; noted with them: CARM1 140-608 vs WT, mean of 3 replicates, log2.
Regarding SPYTTTrYGSPINTFTVrPGTR, the “CARM1 140-608/WT” value is -2.642.
Same read-out and setting: the same measure for SQAPArYSLQSANASSLSSGQLK: -3.491.
Still for that read-out and setting: the same measure for STrGGHMNSGGHAK: 0.5079.
SVGQGYSVGQSMrLGLGGNAPVSIPQQSQSVK: the “CARM1 140-608/WT” value is -2.098.
As to SYGLGSEQrSQAPArYSLQSANASSLSSGQLK, the “CARM1 140-608/WT” value was -3.897.
Regarding “TATVTIrPNTSGSGGTTSNSQVITGPQIrPGMTVIRTPLQQSTLGK”, the “CARM1 140-608/WT” value is given as 2.998.
For “TATVTIrPNTSGSGGTTSNSQVITGPQIrPGMTVIrTPLQQSTLGK”, the “CARM1 140-608/WT” value was 1.9774.
Same read-out and setting: the same measure for TNRPGISTTDrGFPrArYR: -0.4847; for TSSGLFPrIPLQPQAPVSSIGSPVGTPK: 0.8175.

The same assay, now with this note: CARM1 KO versus WT, difference of mean log2 values.
SSYLESPrGPrFDGPR registered a KO/WT of -4.092.
Regarding TDGFAEAIHSPQVAGVPrFR, the KO/WT is on record as -1.53.
As to TPGQINLAQLrLQHMQQQVYAQK, the KO/WT is reported as -5.003.
Still for that read-out and setting: the same measure for TPLLGDGPrAPFNQEGQSTGPPPLIPGLGQQGAQGR: -5.54; for VIGTAVArYNFAAR: -2.89.

The same assay, now with this note: KO versus WT, mean of three replicates (log2).
As for SQGAQPQQVTLrLALR, the KO/WT was -1.987.
In the case of TPGQPGPQrFDGPPGQQVQPrFDGVPQrFDGPQHQQASR, the KO/WT was -1.824.
Substance VGVPTAVQNLAPrAAVAAAAPrAVAPYK gave a KO/WT of -3.003.

Staying with this assay, now noted: KO vs WT, mean of 3 replicates (log2 scale).
On to SLIPPIPVSPPILAPrLSSGALK, for which the KO/WT is recorded as -2.509.
SPGVFRPEQDPVPrMPFEK yielded a KO/WT of -2.083.
Same read-out and setting: under SVVESSAPGANNLQVNALVArLPLLLPR stands -2.6091; under SVVESSAPGANNLQVNALVArLPLLLPrAPR, -2.886; under TPASTWASPrPLLNWSR, -3.334.
The substance VFrYSTSLEK returned a KO/WT of 0.0856.
Same read-out and setting: the same measure for VGVPPQNPrPSLNSAPSPFNPQGQSQITDPR: -2.569.

Staying with this assay, now noted: KO vs WT, mean of 3 replicates, log2.
In turn, SPYTTTrYGSPINTFTVrPGTR showed a KO/WT of -5.424.
Substance SQAPArYSLQSANASSLSSGQLK registered a KO/WT of -4.438.
Turning to STrGGHMNSGGHAK, the KO/WT is recorded as 0.07617.
For SVGQGYSVGQSMrLGLGGNAPVSIPQQSQSVK, the KO/WT is recorded as -2.576.
Same read-out and setting: the same measure for SYGLGSEQrSQAPArYSLQSANASSLSSGQLK: -5.372; for “TATVTIrPNTSGSGGTTSNSQVITGPQIrPGMTVIRTPLQQSTLGK”: -1.078; for “TATVTIrPNTSGSGGTTSNSQVITGPQIrPGMTVIrTPLQQSTLGK”: -1.958.
In turn, TNRPGISTTDrGFPrArYR registered a KO/WT of -0.1094.
Still for that read-out and setting: the same measure for TSSGLFPrIPLQPQAPVSSIGSPVGTPK: -2.603.

Another assay deals with MCF7 cells. The experiment in a line: Quantitative nanoLC-MS/MS (TMT) of ADMA-containing peptides, CARM1 KO vs parental. The format is cell-based, human. Set-up: Fold change KO/WT: scale not given here. As to conditions: ADMA-containing peptide, CARM1 knockout (KO) vs wild type (WT) MCF7 cells; 6-plex TMT experiment #1; three biological replicates each; sheet "MCF7".
As to SQGAQPQQVTLrLALR, the “Fold change KO/WT” value is listed as -1.987.
Take TPGQPGPQrFDGPPGQQVQPrFDGVPQrFDGPQHQQASR: the “Fold change KO/WT” value is -1.547.
For the substance VGVPTAVQNLAPrAAVAAAAPrAVAPYK, the “Fold change KO/WT” value is -3.907.

The same assay, now with this note: ADMA-containing peptide, MCF7, CARM1 knockout (KO1-3) vs wild type (WT1-3), TMT 6-plex experiment #1.
For SPFLGSArPrLR, the “Fold change KO/WT” value is on record as -3.721.
With TDGFAEAIHSPQVAGVPrFR, the “Fold change KO/WT” value was -1.53.
Regarding TPGQINLAQLrLQHMQQQVYAQK, the “Fold change KO/WT” value is -4.121.

The assay is the same for the next values; noted with them: CARM1 KO vs wild type MCF7 cells, 3 biological replicates each.
For the substance SSYLESPrGPrFDGPR, the “Fold change KO/WT” value was -3.147.
On the same count and under the same terms, the same measure for TPLLGDGPrAPFNQEGQSTGPPPLIPGLGQQGAQGR: -4.991; for VIGTAVArYNFAAR: -2.89.

The same assay, now with this note: MCF7, CARM1 KO (KO1-KO3) vs wild type (WT1-WT3).
Regarding SLIPPIPVSPPILAPrLSSGALK, the “Fold change KO/WT” value is listed as -3.075.
As to SPGVFRPEQDPVPrMPFEK, the “Fold change KO/WT” value is -2.083.
For the substance SVVESSAPGANNLQVNALVArLPLLLPR, the “Fold change KO/WT” value is -2.
For SVVESSAPGANNLQVNALVArLPLLLPrAPR, the “Fold change KO/WT” value is reported as -2.886.
As to TPASTWASPrPLLNWSR, the “Fold change KO/WT” value is on record as -3.334.
Take VFrYSTSLEK: the “Fold change KO/WT” value was determined as 0.0856.
As for VGVPPQNPrPSLNSAPSPFNPQGQSQITDPR, the “Fold change KO/WT” value is on record as -2.569.

The same assay, now with this note: MCF7, CARM1 KO vs WT, three biological replicates each.
With SPYTTTrYGSPINTFTVrPGTR, the “Fold change KO/WT” value is reported as -3.428.
Turning to SQAPArYSLQSANASSLSSGQLK, the “Fold change KO/WT” value is given as -4.438.
With STrGGHMNSGGHAK, the “Fold change KO/WT” value worked out at 0.07617.
Turning to SVGQGYSVGQSMrLGLGGNAPVSIPQQSQSVK, the “Fold change KO/WT” value is reported as -2.576.
Still for that read-out and setting: under SYGLGSEQrSQAPArYSLQSANASSLSSGQLK stands -5.372; under “TATVTIrPNTSGSGGTTSNSQVITGPQIrPGMTVIRTPLQQSTLGK”, -1.078; under “TATVTIrPNTSGSGGTTSNSQVITGPQIrPGMTVIrTPLQQSTLGK”, -2.17.
With TNRPGISTTDrGFPrArYR, the “Fold change KO/WT” value was -0.1094.
In the case of TSSGLFPrIPLQPQAPVSSIGSPVGTPK, the “Fold change KO/WT” value is -2.869.
